# Experimental data taken from ChEMBL document CHEMBL6078684, “Discovery of a Novel Non-invasive AR PROTAC Degrader for the Topical Treatment of Androgenetic Alopecia” (J Med Chem, 2024).
# Activity calls are given as the source filed them. The rule behind the calls is not given here.
# Key:
# [1] = biological target: T1, Protein cereblon/Androgen receptor (Homo sapiens, UniProt P10275+Q96SW2); experiment: PROTAC activity at CRBN/AR in human dermal papilla cell assessed as induction of AR degradation by measuring maximal efficacy after 24 hrs by Western blot analysis relative to control; assay type: cell-based
# T1 sequence (P10275 whole entry, looked up): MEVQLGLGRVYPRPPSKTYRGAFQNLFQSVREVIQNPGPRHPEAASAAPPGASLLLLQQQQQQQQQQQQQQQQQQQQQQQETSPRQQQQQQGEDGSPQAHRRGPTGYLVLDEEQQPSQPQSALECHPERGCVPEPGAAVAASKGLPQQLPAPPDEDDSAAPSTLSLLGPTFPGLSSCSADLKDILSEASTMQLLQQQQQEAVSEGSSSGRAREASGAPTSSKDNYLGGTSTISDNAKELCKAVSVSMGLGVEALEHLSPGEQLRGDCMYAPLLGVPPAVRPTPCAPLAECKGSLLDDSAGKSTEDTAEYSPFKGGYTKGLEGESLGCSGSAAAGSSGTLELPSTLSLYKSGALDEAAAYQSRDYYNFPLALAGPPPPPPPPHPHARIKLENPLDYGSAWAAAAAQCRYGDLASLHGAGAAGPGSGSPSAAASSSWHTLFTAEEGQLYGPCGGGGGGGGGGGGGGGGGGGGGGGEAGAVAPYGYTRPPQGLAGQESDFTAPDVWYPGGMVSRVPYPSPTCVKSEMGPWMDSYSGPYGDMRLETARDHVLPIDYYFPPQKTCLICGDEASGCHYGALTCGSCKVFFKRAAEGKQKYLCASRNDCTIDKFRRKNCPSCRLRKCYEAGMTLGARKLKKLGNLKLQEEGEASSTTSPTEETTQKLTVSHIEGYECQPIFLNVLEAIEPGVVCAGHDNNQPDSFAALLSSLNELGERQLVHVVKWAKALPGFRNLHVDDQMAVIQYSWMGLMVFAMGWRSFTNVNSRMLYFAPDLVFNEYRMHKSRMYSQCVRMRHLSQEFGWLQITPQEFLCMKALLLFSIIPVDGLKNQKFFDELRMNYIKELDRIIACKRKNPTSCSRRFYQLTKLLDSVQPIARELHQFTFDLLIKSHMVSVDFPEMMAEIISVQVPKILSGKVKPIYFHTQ
# T1 sequence (Q96SW2 whole entry, looked up): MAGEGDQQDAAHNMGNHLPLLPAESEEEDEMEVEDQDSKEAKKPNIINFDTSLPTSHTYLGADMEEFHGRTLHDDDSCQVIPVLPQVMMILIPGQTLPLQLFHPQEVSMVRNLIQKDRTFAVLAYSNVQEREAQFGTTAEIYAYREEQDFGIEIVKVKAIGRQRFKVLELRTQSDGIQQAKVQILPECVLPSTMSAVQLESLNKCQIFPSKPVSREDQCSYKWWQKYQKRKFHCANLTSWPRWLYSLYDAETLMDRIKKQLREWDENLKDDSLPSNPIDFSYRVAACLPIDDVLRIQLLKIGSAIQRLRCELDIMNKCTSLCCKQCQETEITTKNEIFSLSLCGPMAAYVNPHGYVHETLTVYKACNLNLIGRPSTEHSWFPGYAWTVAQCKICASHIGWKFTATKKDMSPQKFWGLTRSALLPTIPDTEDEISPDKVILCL
# [2] = biological target: T1, Protein cereblon/Androgen receptor; experiment: PROTAC activity at CRBN/AR in human dermal papilla cell assessed as induction of AR degradation at 500 nM by Western blot analysis; assay type: cell-based; settings: time 2-24 hrs
# [3] = biological target: T1, Protein cereblon/Androgen receptor; experiment: PROTAC activity at CRBN/AR in human dermal papilla cells assessed as induction of AR degradation at 500 nM in presence of MLN4924 by Western blot analysis; assay type: cell-based; settings: Human dermal papilla cell
# [4] = biological target: T1, Protein cereblon/Androgen receptor; experiment: PROTAC activity at CRBN/AR in human dermal papilla cells assessed as induction of AR degradation at 500 nM in presence of warhead of compound by Western blot analysis; assay type: cell-based; settings: Human dermal papilla cell
# [5] = biological target: T1, Protein cereblon/Androgen receptor; experiment: PROTAC activity at CRBN/AR in human dermal papilla cells assessed as induction of AR degradation at 500 nM in presence of pomalidomide by Western blot analysis; assay type: cell-based; settings: Human dermal papilla cell
# [6] = biological target: T1, Protein cereblon/Androgen receptor; experiment: PROTAC activity at CRBN/AR in human dermal papilla cells assessed as decrease in TGF-beta1 expression level at 250 to 1000 nM preincubated with testosterone for 24 hrs followed by compound addition and measured after 48 hrs by Western blot analysis; assay type: cell-based; settings: Human dermal papilla cell, dose 250-1000 nM
# [7] = biological target: T1, Protein cereblon/Androgen receptor; experiment: PROTAC activity at CRBN/AR in human dermal papilla cells assessed as inhibition of TGF-beta1 release by measuring TGF-beta1 concentration at 500 nM preincubated with testosterone for 24 hrs followed by compound addition and measured after 48 hrs by ELISA; assay type: cell-based; settings: Human dermal papilla cell
# [8] = biological target: T1, Protein cereblon/Androgen receptor; experiment: PROTAC activity at CRBN/AR in human dermal papilla cells assessed as inhibition of TGF-beta1 release by measuring fold change in TGF-beta1 concentration at 1 uM preincubated with testosterone for 24 hrs followed by compound addition and measured after 48 hrs by ELISA relative to enzalutamide; assay type: cell-based; settings: Human dermal papilla cell
# [9] = Ratio of drug concentration in male ICR mouse skin to heart at 4 mg/ml, TOP measured after 0.25 hrs by LC-MS/MS analysis; assay type: ADME, tissue-based; settings: in vivo, topical_or_ocular
# [10] = Ratio of drug concentration in male ICR mouse skin to heart at 4 mg/ml, TOP measured after 0.5 hrs by LC-MS/MS analysis; assay type: ADME, tissue-based; settings: in vivo, topical_or_ocular
# [11] = Cmax in male ICR mouse skin at 4 mg/ml, TOP measured after 12 hrs by LC-MS/MS analysis; assay type: ADME, tissue-based, Skin of body; settings: topical or ocular
# [12] = Cmax in male ICR mouse plasma at 4 mg/ml, TOP measured after 12 hrs by LC-MS/MS analysis; assay type: ADME, cell-free; settings: topical or ocular
# [13] = Drug uptake in male ICR mouse lung at 4 mg/ml, TOP measured after 12 hrs by LC-MS/MS analysis; assay type: ADME, tissue-based; settings: in vivo, topical_or_ocular
# [14] = Ratio of drug concentration in male ICR mouse skin to plasma at 4 mg/ml, TOP measured after 0.5 hrs by LC-MS/MS analysis; assay type: ADME, cell-free; settings: topical or ocular
# [15] = Ratio of drug concentration in male ICR mouse skin to plasma at 4 mg/ml, TOP measured after 1 hrs by LC-MS/MS analysis; assay type: ADME, cell-free; settings: topical or ocular
# [16] = Ratio of drug concentration in male ICR mouse skin to plasma at 4 mg/ml, TOP measured after 2 hrs by LC-MS/MS analysis; assay type: ADME, cell-free; settings: other tissue, topical_or_ocular
# [17] = Ratio of drug concentration in male ICR mouse skin to plasma at 4 mg/ml, TOP measured after 4 hrs by LC-MS/MS analysis; assay type: ADME, cell-free; settings: other tissue, topical_or_ocular
# [18] = Ratio of drug concentration in male ICR mouse skin to heart at 4 mg/ml, TOP measured after 2 hrs by LC-MS/MS analysis; assay type: ADME, tissue-based; settings: in vivo, topical_or_ocular
# [19] = Ratio of drug concentration in male ICR mouse skin to heart at 4 mg/ml, TOP measured after 8 hrs by LC-MS/MS analysis; assay type: ADME, tissue-based; settings: in vivo, topical_or_ocular
# [20] = Ratio of drug concentration in male ICR mouse skin to liver at 4 mg/ml, TOP measured after 12 hrs by LC-MS/MS analysis; assay type: ADME, tissue-based; settings: in vivo, topical_or_ocular
# [21] = Ratio of drug concentration in male ICR mouse skin to spleen at 4 mg/ml, TOP measured after 0.5 hrs by LC-MS/MS analysis; assay type: ADME, tissue-based; settings: in vivo, topical_or_ocular
# [22] = Ratio of drug concentration in male ICR mouse skin to spleen at 4 mg/ml, TOP measured after 2 hrs by LC-MS/MS analysis; assay type: ADME, tissue-based; settings: in vivo, topical_or_ocular
# [23] = Ratio of drug concentration in male ICR mouse skin to spleen at 4 mg/ml, TOP measured after 4 hrs by LC-MS/MS analysis; assay type: ADME, tissue-based; settings: in vivo, topical_or_ocular
# [24] = Ratio of drug concentration in male ICR mouse skin to spleen at 4 mg/ml, TOP measured after 8 hrs by LC-MS/MS analysis; assay type: ADME, tissue-based; settings: in vivo, topical_or_ocular
# [25] = Ratio of drug concentration in male ICR mouse skin to lungs at 4 mg/ml, TOP measured after 2 hrs by LC-MS/MS analysis; assay type: ADME, tissue-based, Skin/Lung; settings: in vivo, topical_or_ocular
# [26] = Ratio of drug concentration in male ICR mouse skin to lungs at 4 mg/ml, TOP measured after 4 hrs by LC-MS/MS analysis; assay type: ADME, tissue-based, Skin/Lung; settings: in vivo, topical_or_ocular
# [27] = Ratio of drug concentration in male ICR mouse skin to kidney at 4 mg/ml, TOP measured after 1 hrs by LC-MS/MS analysis; assay type: ADME, tissue-based; settings: in vivo, topical_or_ocular
# Mus musculus [28] = experiment: Hair regeneration efficacy in testosterone induced male C57BL/6 mouse androgenetic alopecia model assessed as earlier pigmentation at 0.1 to 0.4 %, TOP administered once daily for 14 days and measured after 21 days with co-administration of 0.2% testosterone for 28 days by photographic analysis; assay type: functional, organism-based; settings: dose 0.1-0.4 %, time 14.0 day
# Mus musculus [29] = experiment: Hair regeneration efficacy in testosterone induced male C57BL/6 mouse androgenetic alopecia model assessed as increase in hair diameter at 0.1 %, TOP administered once daily for 14 days with co-administration of 0.2% testosterone and measured after 28 days by SEM analysis; assay type: functional, organism-based; settings: time 28.0 day
# Mus musculus [30] = experiment: Hair regeneration efficacy in testosterone induced male C57BL/6 mouse androgenetic alopecia model assessed as increase in hair density at 0.4 %, TOP administered once daily for 14 days with co-administration of 0.2% testosterone and measured after 28 days by trichoscope photographic analysis; assay type: functional, organism-based; settings: time 28.0 day
# Mus musculus [31] = experiment: (§1) Hair regeneration efficacy in testosterone induced male C57BL/6 mouse androgenetic alopecia model assessed as entry of hair follicles to anagen phase by measuring high density of enlarged hair bulbs in subcutaneous tissue at 0.4 %, TOP administered once daily for 14 days with co-administration of 0.2% testosterone for 28 days by H and E staining based analysis; assay type: functional, organism-based; settings: time 14.0 day
# Mus musculus [32] = experiment: Hair regeneration efficacy in testosterone induced male C57BL/6 mouse androgenetic alopecia model assessed as increase in hair cycle score at 0.4 %, TOP administered once daily for 14 days with co-administration of 0.2% testosterone for 28 days; assay type: functional, organism-based; settings: time 14.0 day
# Mus musculus [33] = experiment: as §1, with “0.1” for “0.4”; assay type: functional, organism-based; settings: time 14.0 day
# Mus musculus [34] = experiment: (§2) Hair regeneration efficacy in testosterone induced male C57BL/6 mouse androgenetic alopecia model assessed as increase in Ki67 expression in skin at 0.4 % TOP administered once daily for 14 days with co-administration of 0.2% testosterone for 28 days by DAPI staining based immunofluorescence analysis; assay type: functional, organism-based; settings: time 14.0 day
# Mus musculus [35] = experiment: as §2, with “0.1” for “0.4”; assay type: functional, organism-based; settings: time 14.0 day
compound,measurement,setting,value
N#Cc1ccc(O[C@H]2CC[C@H](NC(=O)c3ccc(C4CCN(CC5CCCN(c6ccc(C(=O)NC7CCC(=O)NC7=O)cc6)C5)CC4)cc3)CC2)cc1Cl (stereo not given in full),Emax,[1],63%
same,Activity,[2],Time-dependent-effect
same,Activity,[3],Not active; Compound Activity Dependent On Ubiquitin-Proteosome System
same,Activity,[4],inactive
same,Activity,[5],inactive
same,Activity,[6],Active
same,Activity,[7],869 pg/mL
same,fold change (FC),[8],0.62
same,Ratio,[9],333.81
same,Ratio,[10],119.61
same,Cmax,[11],86700 ng/g
same,Cmax,[12],708 ng/mL
same,Drug uptake,[13],Active
same,Kp at 0.5 h,[14],129
same,Kp at 1 h,[15],71.5
same,Ratio,[16],1098.91
same,Ratio,[17],1873.84
same,Ratio,[18],638.59
same,Ratio,[19],754.91
same,Ratio,[20],173.24
same,Ratio,[21],67.05
same,Ratio,[22],450.95
same,Ratio,[23],635.83
same,Ratio,[24],347.97
same,Ratio,[25],198.98
same,Ratio,[26],238.43
same,Ratio,[27],467.24
same,Activity,Mus musculus [28],Active
same,Activity,Mus musculus [29],Active
same,Activity,Mus musculus [30],Active
same,Activity,Mus musculus [31],Active
same,Activity,Mus musculus [32],Active
same,Activity,Mus musculus [33],Active; Less Effective Compared To High Dose Compound Group And Minoxidil Group
same,Activity,Mus musculus [34],Active
same,Activity,Mus musculus [35],Active; Moderate Increase Observed Compared To Model Group
